# Assay results: PubChem BioAssay AID1259407 (Chemical Carcinogenesis Research Information System (CCRIS), 2018)
# Active and inactive are the calls of the source. No rule for the calls is given here.
# System: CCRIS mutagenicity, Ames/micronucleus/aberration tests
# Assay: CCRIS mutagenicity studies
# [1] = Test System: AMES SALMONELLA TYPHIMURIUM, Strain/Indicator: TA100, Metabolic Activation: NONE, Method: STANDARD PLATE
# [2] = Test System: AMES SALMONELLA TYPHIMURIUM, Strain/Indicator: TA98, Metabolic Activation: NONE, Method: PREINCUBATION
# [3] = Test System: AMES SALMONELLA TYPHIMURIUM, Strain/Indicator: TA100, Metabolic Activation: NONE, Method: PREINCUBATION
# [4] = Test System: AMES SALMONELLA TYPHIMURIUM, Strain/Indicator: TA1535, Metabolic Activation: NONE, Method: PREINCUBATION
# [5] = Test System: AMES SALMONELLA TYPHIMURIUM, Strain/Indicator: TA1537, Metabolic Activation: NONE, Method: PREINCUBATION
smiles,measurement,setting,value
O=C(ON(OCc1ccccc1)C(=O)c1ccccc1)c1ccc([N+](=O)[O-])cc1,mutagenic call,[1],active; positive
same,mutagenic call,"Test System: AMES SALMONELLA TYPHIMURIUM, Strain/Indicator: TA100, Metabolic Activation: RAT, S-9, AROCLOR, Method: STANDARD PLATE",active; positive
O.[Al+3].[Al+3].[Na+].[Na+].[O-2].[O-2].[O-2].[O-2].[O-2].[O-2].[Si+4],mutagenic call,"Test System: AMES SALMONELLA TYPHIMURIUM, Strain/Indicator: TA98, Metabolic Activation: HAMSTER, LIVER, S-9, AROCLOR 1254 (10%), Method: PREINCUBATION",inactive; negative
same,mutagenic call,[2],inactive; negative
same,mutagenic call,"Test System: AMES SALMONELLA TYPHIMURIUM, Strain/Indicator: TA98, Metabolic Activation: NONE, Method: STANDARD PLATE",inactive; negative
same,mutagenic call,"Test System: AMES SALMONELLA TYPHIMURIUM, Strain/Indicator: TA98, Metabolic Activation: RAT, LIVER, S-9, AROCLOR 1254 (10%), Method: PREINCUBATION",inactive; negative
same,mutagenic call,"Test System: AMES SALMONELLA TYPHIMURIUM, Strain/Indicator: TA98, Metabolic Activation: RAT, LIVER, S-9, AROCLOR 1254, Method: STANDARD PLATE",inactive; negative
same,mutagenic call,"Test System: AMES SALMONELLA TYPHIMURIUM, Strain/Indicator: TA100, Metabolic Activation: HAMSTER, LIVER, S-9, AROCLOR 1254 (10%), Method: PREINCUBATION",inactive; negative
same,mutagenic call,[3],inactive; negative
same,mutagenic call,[1],inactive; negative
same,mutagenic call,"Test System: AMES SALMONELLA TYPHIMURIUM, Strain/Indicator: TA100, Metabolic Activation: RAT, LIVER, S-9, AROCLOR 1254 (10%), Method: PREINCUBATION",inactive; negative
same,mutagenic call,"Test System: AMES SALMONELLA TYPHIMURIUM, Strain/Indicator: TA100, Metabolic Activation: RAT, LIVER, S-9, AROCLOR 1254, Method: STANDARD PLATE",inactive; negative
same,mutagenic call,"Test System: AMES SALMONELLA TYPHIMURIUM, Strain/Indicator: TA1535, Metabolic Activation: HAMSTER, LIVER, S-9, AROCLOR 1254 (10%), Method: PREINCUBATION",inactive; negative
same,mutagenic call,[4],inactive; negative
same,mutagenic call,"Test System: AMES SALMONELLA TYPHIMURIUM, Strain/Indicator: TA1535, Metabolic Activation: NONE, Method: STANDARD PLATE",inactive; negative
same,mutagenic call,"Test System: AMES SALMONELLA TYPHIMURIUM, Strain/Indicator: TA1535, Metabolic Activation: RAT, LIVER, S-9, AROCLOR 1254 (10%), Method: PREINCUBATION",inactive; negative
same,mutagenic call,"Test System: AMES SALMONELLA TYPHIMURIUM, Strain/Indicator: TA1535, Metabolic Activation: RAT, LIVER, S-9, AROCLOR 1254, Method: STANDARD PLATE",inactive; negative
same,mutagenic call,"Test System: AMES SALMONELLA TYPHIMURIUM, Strain/Indicator: TA1537, Metabolic Activation: HAMSTER, LIVER, S-9, AROCLOR 1254 (10%), Method: PREINCUBATION",inactive; negative
same,mutagenic call,[5],inactive; negative
same,mutagenic call,"Test System: AMES SALMONELLA TYPHIMURIUM, Strain/Indicator: TA1537, Metabolic Activation: NONE, Method: STANDARD PLATE",inactive; negative
same,mutagenic call,"Test System: AMES SALMONELLA TYPHIMURIUM, Strain/Indicator: TA1537, Metabolic Activation: RAT, LIVER, S-9, AROCLOR 1254 (10%), Method: PREINCUBATION",inactive; negative
same,mutagenic call,"Test System: AMES SALMONELLA TYPHIMURIUM, Strain/Indicator: TA1537, Metabolic Activation: RAT, LIVER, S-9, AROCLOR 1254, Method: STANDARD PLATE",inactive; negative
same,mutagenic call,"Test System: AMES SALMONELLA TYPHIMURIUM, Strain/Indicator: TA1538, Metabolic Activation: NONE, Method: STANDARD PLATE",inactive; negative
same,mutagenic call,"Test System: AMES SALMONELLA TYPHIMURIUM, Strain/Indicator: TA1538, Metabolic Activation: RAT, LIVER, S-9, AROCLOR 1254, Method: STANDARD PLATE",inactive; negative
same,mutagenic call,"Test System: E. COLI, Strain/Indicator: WP2, Metabolic Activation: NONE, Method: STANDARD PLATE",inactive; negative
same,mutagenic call,"Test System: E. COLI, Strain/Indicator: WP2, Metabolic Activation: RAT, LIVER, S-9, AROCLOR 1254, Method: STANDARD PLATE",inactive; negative
CO[C@@H]1[C@H](C)O[C@@H](O[C@@H]2C[C@H](Oc3cc(O)c4c(O)c5c(cc4c3)C[C@@H]([C@H](OC)C(=O)[C@@H](O)[C@@H](C)O)[C@H](O[C@@H]3C[C@H](OC4C[C@H](O)[C@@H](O)[C@H](C)O4)[C@@H](O)[C@H](C)O3)C5=O)O[C@H](C)[C@@H]2O)C[C@@H]1O (stereo partly drawn),mutagenic call,"Test System: CHINESE HAMSTER OVARY, Strain/Indicator: CHO (HGPRT)/6-THIOGUANINE, Metabolic Activation: NONE, Method: PREINCUBATION",active; positive
CC(O)/C(=C(\c1ccccc1)c1ccc(OCCN(C)C)cc1)c1ccccc1 (stereo not drawn),mutagenic call,"Test System: CHINESE HAMSTER V-79, Strain/Indicator: V79HHST (HPRT)/6-THIOGUANINE, Metabolic Activation: NONE",inactive; negative
same,mutagenic call,"Test System: CHINESE HAMSTER V-79, Strain/Indicator: V79RHST (HPRT)/6-THIOGUANINE, Metabolic Activation: NONE",active; positive
O=C(O)c1cc(=O)c2cccc(O)c2[nH]1,mutagenic call,[3],inactive; negative
CCOCCOC(C)=O,mutagenic call,[2],inactive; negative
same,mutagenic call,"Test System: AMES SALMONELLA TYPHIMURIUM, Strain/Indicator: TA98, Metabolic Activation: RAT LIVER S-9, PHENOBARBITAL AND BETA-NAPHTHOFLAVONE, Method: PREINCUBATION",inactive; negative
same,mutagenic call,[3],inactive; negative
same,mutagenic call,"Test System: AMES SALMONELLA TYPHIMURIUM, Strain/Indicator: TA100, Metabolic Activation: RAT LIVER S-9, PHENOBARBITAL AND BETA-NAPHTHOFLAVONE, Method: PREINCUBATION",inactive; negative
same,mutagenic call,"Test System: AMES SALMONELLA TYPHIMURIUM, Strain/Indicator: TA102, Metabolic Activation: NONE, Method: PREINCUBATION",inactive; negative
same,mutagenic call,"Test System: AMES SALMONELLA TYPHIMURIUM, Strain/Indicator: TA102, Metabolic Activation: RAT LIVER S-9, PHENOBARBITAL AND BETA-NAPHTHOFLAVONE, Method: PREINCUBATION",inactive; negative
same,mutagenic call,"Test System: AMES SALMONELLA TYPHIMURIUM, Strain/Indicator: TA104, Metabolic Activation: NONE, Method: PREINCUBATION",inactive; negative
same,mutagenic call,"Test System: AMES SALMONELLA TYPHIMURIUM, Strain/Indicator: TA104, Metabolic Activation: RAT LIVER S-9, PHENOBARBITAL AND BETA-NAPHTHOFLAVONE, Method: PREINCUBATION",inactive; negative
same,mutagenic call,[4],inactive; negative
same,mutagenic call,"Test System: AMES SALMONELLA TYPHIMURIUM, Strain/Indicator: TA1535, Metabolic Activation: RAT LIVER S-9, PHENOBARBITAL AND BETA-NAPHTHOFLAVONE, Method: PREINCUBATION",inactive; negative
same,mutagenic call,[5],inactive; negative
same,mutagenic call,"Test System: AMES SALMONELLA TYPHIMURIUM, Strain/Indicator: TA1537, Metabolic Activation: RAT LIVER S-9, PHENOBARBITAL AND BETA-NAPHTHOFLAVONE, Method: PREINCUBATION",inactive; negative
same,mutagenic call,"Test System: E.COLI, Strain/Indicator: WP2UVRA/PKM101, Metabolic Activation: NONE, Method: PREINCUBATION",inactive; negative
same,mutagenic call,"Test System: E.COLI, Strain/Indicator: WP2UVRA/PKM101, Metabolic Activation: RAT LIVER S-9, PHENOBARBITAL AND BETA-NAPHTHOFLAVONE, Method: PREINCUBATION",inactive; negative
same,mutagenic call,"Test System: E.COLI, Strain/Indicator: WP2UVRA, Metabolic Activation: NONE, Method: PREINCUBATION",inactive; negative
same,mutagenic call,"Test System: E.COLI, Strain/Indicator: WP2UVRA, Metabolic Activation: RAT LIVER S-9, PHENOBARBITAL AND BETA-NAPHTHOFLAVONE, Method: PREINCUBATION",inactive; negative
O[C@@H]1C=Cc2c(cc3ccc4cccc5c6ccccc6c2c3c45)[C@H]1O,mutagenic call,"Test System: CHINESE HAMSTER V-79, Strain/Indicator: V-79 (HPRT)/6-THIOGUANINE, Metabolic Activation: HUMAN MAMMARY CARCINOMA MCF-7 CELLS",active; positive
same,mutagenic call,"Test System: CHINESE HAMSTER V-79, Strain/Indicator: V-79, Metabolic Activation: RAT, LIVER, S-9, AROCLOR 1254",active; positive
